From ChEMBL document CHEMBL1128553, “Synthesis of 1,4,7,8,9,10-hexahydro-9-methyl-6-nitropyrido[3,4-f]- quinoxaline-2,3-dione and related quinoxalinediones: characterization of alpha-amino-3-hydroxy-5-methyl-4-isoxazolepropionic acid (and N-methyl-D-aspartate) receptor and anticonvulsant activity” (J Med Chem, 1995)
pIC50: −log10 of the molar value.

Assays:
[1] = target: T1, Glutamate receptor ionotropic, AMPA (Rattus norvegicus, UniProt P19490+P19491+P19492+P19493)
Description: (§1) Binding affinity was determined against ionotropic glutamate receptor AMPA in rat brain synaptic membranes using [3H]AMPA as radioligand

[2] = species on record: Rattus norvegicus; experiment: Concentration of compound that inhibits by 50% depolarizations induced by 10 uM AMPA; format: functional
[3] = species on record: Rattus norvegicus; experiment: Concentration of compound that inhibits by 50% LDH released by 24 hr application of 500 uM kainate; format: functional, organism-based
[4] = target: Glutamate receptor ionotropic, NMDA 1 (Rattus norvegicus, UniProt P35439); experiment: Affinity for N-methyl-D-aspartate glutamate receptor 1 in rat brain synaptic membranes, using [3H]glycine as radioligand; format: cell membranes
[5] = target: Glutamate receptor ionotropic, kainate; experiment: Binding affinity for the ionotropic glutamate receptor kainate in rat brain synaptic membranes using [3H]kainate as radioligand; format: cell membranes
[6] = target: Glutamate receptor ionotropic, kainate; experiment: Antagonistic activity against Ionotropic glutamate receptor kainate induced LDH release in cultured cortical neurons in rat after 24 hr application of 500 uM of kainate; format: functional
[7] = target: T1, Glutamate receptor ionotropic, AMPA; remark: listed apart in the source
Description: Antagonistic activity against Ionotropic glutamate receptor AMPA induced LDH release in cultured rat cortical neurons after 24 hr 100 uM AMPA

[8] = target: T1, Glutamate receptor ionotropic, AMPA; remark: listed apart in the source
Description: Inhibition of Ionotropic glutamate receptor AMPA induced depolarization in rat cortical wedge by application of 10 uM of AMPA

[9] = species on record: Rattus norvegicus; experiment: Concentration of compound that inhibits by 50% LDH released by 24 hr application of 100 uM AMPA; format: functional, organism-based
[10] = target: Glutamate receptor ionotropic, AMPA (Rattus norvegicus, UniProt P19491+P19492+P19493+P19490)
Glutamate receptor ionotropic, AMPA (Rattus norvegicus, UniProt P19491+P19492+P19493+P19490), sequence (P19491 whole entry): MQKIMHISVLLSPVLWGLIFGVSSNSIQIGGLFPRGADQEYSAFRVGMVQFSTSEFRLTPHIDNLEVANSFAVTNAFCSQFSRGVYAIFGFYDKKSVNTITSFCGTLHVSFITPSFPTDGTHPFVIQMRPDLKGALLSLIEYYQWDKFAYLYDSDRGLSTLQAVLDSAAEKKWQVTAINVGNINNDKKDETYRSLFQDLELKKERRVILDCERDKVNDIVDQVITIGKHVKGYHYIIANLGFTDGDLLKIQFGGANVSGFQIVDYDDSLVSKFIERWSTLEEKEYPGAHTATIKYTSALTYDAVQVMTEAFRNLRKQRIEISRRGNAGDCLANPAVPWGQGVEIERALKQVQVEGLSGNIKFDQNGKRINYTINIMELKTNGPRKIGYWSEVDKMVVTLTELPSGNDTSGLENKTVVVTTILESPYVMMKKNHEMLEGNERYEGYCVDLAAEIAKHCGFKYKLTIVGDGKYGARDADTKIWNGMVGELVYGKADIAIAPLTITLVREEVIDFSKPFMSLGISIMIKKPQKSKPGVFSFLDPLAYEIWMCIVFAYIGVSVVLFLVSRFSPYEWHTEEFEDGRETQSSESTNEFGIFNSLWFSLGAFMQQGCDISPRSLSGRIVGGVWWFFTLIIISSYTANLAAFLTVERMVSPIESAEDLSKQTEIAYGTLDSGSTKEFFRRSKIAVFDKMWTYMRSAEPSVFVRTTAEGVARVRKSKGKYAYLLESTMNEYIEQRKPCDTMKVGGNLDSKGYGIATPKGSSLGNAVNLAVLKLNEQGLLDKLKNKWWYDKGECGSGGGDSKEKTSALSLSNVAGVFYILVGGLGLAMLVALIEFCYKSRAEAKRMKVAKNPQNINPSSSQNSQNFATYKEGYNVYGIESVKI
Glutamate receptor ionotropic, AMPA (Rattus norvegicus, UniProt P19491+P19492+P19493+P19490), sequence (P19492 whole entry): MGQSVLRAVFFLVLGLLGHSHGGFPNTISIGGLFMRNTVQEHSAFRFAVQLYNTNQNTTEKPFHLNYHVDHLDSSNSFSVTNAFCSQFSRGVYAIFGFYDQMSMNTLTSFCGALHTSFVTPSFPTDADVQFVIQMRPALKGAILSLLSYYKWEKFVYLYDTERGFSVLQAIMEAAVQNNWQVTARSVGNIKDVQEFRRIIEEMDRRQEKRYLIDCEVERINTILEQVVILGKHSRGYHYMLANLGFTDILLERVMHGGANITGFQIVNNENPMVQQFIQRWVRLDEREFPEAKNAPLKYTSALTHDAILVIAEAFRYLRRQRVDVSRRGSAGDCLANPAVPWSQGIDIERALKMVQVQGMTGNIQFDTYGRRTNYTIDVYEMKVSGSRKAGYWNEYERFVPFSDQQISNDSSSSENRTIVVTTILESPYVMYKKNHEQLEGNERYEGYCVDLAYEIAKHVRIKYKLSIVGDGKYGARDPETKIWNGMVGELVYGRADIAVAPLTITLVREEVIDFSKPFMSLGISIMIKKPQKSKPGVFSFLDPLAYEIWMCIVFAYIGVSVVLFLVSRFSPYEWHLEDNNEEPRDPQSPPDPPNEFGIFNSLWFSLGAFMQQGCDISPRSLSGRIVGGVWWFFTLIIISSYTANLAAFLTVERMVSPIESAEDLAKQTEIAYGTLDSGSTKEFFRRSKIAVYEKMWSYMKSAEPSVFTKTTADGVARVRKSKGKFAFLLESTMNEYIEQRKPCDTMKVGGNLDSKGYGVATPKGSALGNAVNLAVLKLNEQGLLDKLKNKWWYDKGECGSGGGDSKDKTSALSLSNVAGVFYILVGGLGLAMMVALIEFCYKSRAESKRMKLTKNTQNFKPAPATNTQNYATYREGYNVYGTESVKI
Glutamate receptor ionotropic, AMPA (Rattus norvegicus, UniProt P19491+P19492+P19493+P19490), sequence (P19493 whole entry): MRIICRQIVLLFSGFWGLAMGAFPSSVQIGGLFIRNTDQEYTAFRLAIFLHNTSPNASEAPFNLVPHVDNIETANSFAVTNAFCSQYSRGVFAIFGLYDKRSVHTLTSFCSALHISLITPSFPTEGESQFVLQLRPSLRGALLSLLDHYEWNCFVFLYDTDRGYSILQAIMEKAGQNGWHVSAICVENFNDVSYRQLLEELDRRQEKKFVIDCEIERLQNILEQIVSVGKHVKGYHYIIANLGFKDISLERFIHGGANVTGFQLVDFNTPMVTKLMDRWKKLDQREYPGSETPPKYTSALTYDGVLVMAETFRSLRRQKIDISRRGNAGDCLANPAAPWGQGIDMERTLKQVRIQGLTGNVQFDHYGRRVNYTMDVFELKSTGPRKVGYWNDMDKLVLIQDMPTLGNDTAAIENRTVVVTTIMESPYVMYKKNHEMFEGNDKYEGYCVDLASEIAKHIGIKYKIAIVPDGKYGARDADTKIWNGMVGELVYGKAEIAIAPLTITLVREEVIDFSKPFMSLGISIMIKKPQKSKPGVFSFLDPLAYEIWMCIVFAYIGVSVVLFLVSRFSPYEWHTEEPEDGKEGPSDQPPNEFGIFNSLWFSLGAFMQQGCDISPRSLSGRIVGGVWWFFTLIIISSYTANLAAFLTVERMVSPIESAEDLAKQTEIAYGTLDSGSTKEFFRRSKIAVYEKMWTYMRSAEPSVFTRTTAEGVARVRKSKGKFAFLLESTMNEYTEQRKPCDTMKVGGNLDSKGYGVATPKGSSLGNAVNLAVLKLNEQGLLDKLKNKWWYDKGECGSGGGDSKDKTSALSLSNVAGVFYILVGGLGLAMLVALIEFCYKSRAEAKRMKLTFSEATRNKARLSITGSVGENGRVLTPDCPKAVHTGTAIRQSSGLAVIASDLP
Glutamate receptor ionotropic, AMPA (Rattus norvegicus, UniProt P19491+P19492+P19493+P19490), sequence (P19490 whole entry): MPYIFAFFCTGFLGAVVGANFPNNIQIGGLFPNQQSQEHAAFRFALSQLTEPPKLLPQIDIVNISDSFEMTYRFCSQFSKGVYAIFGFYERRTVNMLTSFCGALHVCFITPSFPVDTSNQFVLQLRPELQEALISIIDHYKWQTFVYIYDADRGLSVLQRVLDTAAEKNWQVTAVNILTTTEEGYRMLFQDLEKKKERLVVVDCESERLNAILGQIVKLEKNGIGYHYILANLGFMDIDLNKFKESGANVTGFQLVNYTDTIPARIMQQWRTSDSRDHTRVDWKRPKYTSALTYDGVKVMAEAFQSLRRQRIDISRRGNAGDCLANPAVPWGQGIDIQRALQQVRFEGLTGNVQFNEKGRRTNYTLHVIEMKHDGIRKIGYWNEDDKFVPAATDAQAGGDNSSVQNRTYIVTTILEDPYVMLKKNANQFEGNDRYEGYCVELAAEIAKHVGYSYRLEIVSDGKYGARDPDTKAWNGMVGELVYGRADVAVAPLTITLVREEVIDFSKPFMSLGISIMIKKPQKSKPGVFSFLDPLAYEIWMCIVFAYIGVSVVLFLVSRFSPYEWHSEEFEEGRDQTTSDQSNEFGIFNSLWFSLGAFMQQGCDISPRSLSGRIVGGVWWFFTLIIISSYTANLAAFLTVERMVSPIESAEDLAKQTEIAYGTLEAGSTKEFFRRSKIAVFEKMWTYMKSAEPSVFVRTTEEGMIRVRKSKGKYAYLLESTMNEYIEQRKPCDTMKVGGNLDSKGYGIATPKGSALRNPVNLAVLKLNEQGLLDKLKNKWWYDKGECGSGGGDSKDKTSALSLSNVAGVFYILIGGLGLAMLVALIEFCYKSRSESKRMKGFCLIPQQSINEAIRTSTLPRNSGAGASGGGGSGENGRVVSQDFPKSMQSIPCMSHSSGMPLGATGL
Description: as §1

SMILES | pIC50 [1] | pIC50 [2] | pIC50 [3] | pIC50 [4] | pIC50 [5] | pIC50 [6] | pIC50 [7] | pIC50 [8] | pIC50 [9] | pIC50 [10]
CCN1CCc2c(c([N+](=O)[O-])cc3nc(O)c(O)nc23)C1 | 6.27 | 4.85 | 4.59 | 5.30 | 6.31 | 4.59 | 4.60 | 4.85 | 4.60 | 
O=c1[nH]c2cc(Br)c3c(c2[nH]c1=O)CCCN3 | 5.05 |  |  |  |  |  |  |  |  | 
CCN1CCc2c(c(Br)cc3[nH]c(=O)c(=O)[nH]c23)C1 | 5.89 |  |  | 3.57 | 4.85 |  |  |  |  | 
CCC(C)CN1CCc2c(c([N+](=O)[O-])cc3[nH]c(=O)c(=O)[nH]c23)C1 (configuration not stated) | 5.89 |  |  | < 4.00 | 4.82 |  |  |  |  | 
CCN1CCc2c([N+](=O)[O-])cc3[nH]c(=O)c(=O)[nH]c3c2C1 | 6.78 | 6.15 | 5.15 | 5.85 | 6.28 | 5.15 | 5.22 | 6.15 | 5.22 | 
CCC(C)CN1CCc2ccc3nc(O)c(O)nc3c2C1 (configuration not stated) | < 4.00 |  |  |  |  |  |  |  |  | 
CCCN1CCc2c(c([N+](=O)[O-])cc3[nH]c(=O)c(=O)[nH]c23)C1 | 5.55 |  |  | 4.70 | 5.77 |  |  |  |  | 
CCC(C)CN1CCc2c(ccc3nc(O)c(O)nc23)C1 (configuration not stated) | < 4.00 |  |  | < 4.00 | 4.32 |  |  |  |  | 
CCc1cnc2c(O)nc3cc([N+](=O)[O-])c(-n4ccnc4)cc3n12 | 7.70 |  |  |  |  |  |  |  |  | 
CN1CCCc2c1ccc1nc(O)c(O)nc21 | 4.62 |  |  |  |  |  |  |  |  | 
CCC(C)N1CCc2ccc3nc(O)c(O)nc3c2C1 (configuration not stated) | < 4.00 |  |  |  | 4.68 |  |  |  |  | 
CCC(C)CN1CCc2c(Br)cc3nc(O)c(O)nc3c2C1 (configuration not stated) | < 4.00 | < 4.52 | < 4.52 | < 4.00 | 5.54 | < 4.52 | < 4.52 | < 4.52 | < 4.52 | 
CC(=O)Nc1cc2[nH]c(=O)c(=O)[nH]c2c2c1CCN(C)C2 | < 4.00 |  |  | < 4.00 | < 4.00 |  |  |  |  | 
CCOC(=O)c1nc2cc(Br)c3c(c2nc1O)CCN(C)C3 | < 4.00 |  |  |  |  |  |  |  |  | 
CCCCCCCN1CCc2c(c([N+](=O)[O-])cc3[nH]c(=O)c(=O)[nH]c23)C1 | 5.24 |  |  | < 5.00 | 4.10 |  |  |  |  | 
CN1CCc2c(N)cc3[nH]c(=O)c(=O)[nH]c3c2C1 | 4.00 |  |  | < 4.00 | 4.55 |  |  |  |  | 
CCN1CCc2c(ccc3nc(O)c(O)nc23)C1 | 4.68 |  |  |  | 4.43 |  |  |  |  | 
CCN1CCc2ccc3[nH]c(=O)c(=O)[nH]c3c2C1 | 4.39 |  |  |  | 4.70 |  |  |  |  | 
CN1CCc2c(C#N)cc3[nH]c(=O)c(=O)[nH]c3c2C1 | 5.87 |  |  | 5.85 | 5.62 |  |  |  |  | 
Cc1cc2[nH]c(=O)c(=O)[nH]c2c2c1CN(C)CC2 | 4.75 |  |  | < 5.00 | 5.17 |  |  |  |  | 
O=C(NS(=O)(=O)c1ccccc1)c1nc2cc(Cl)c(Cl)cc2[nH]c1=O | 5.37 |  |  |  |  |  |  |  |  | 
CC(C)CCN1CCc2c(Br)cc3nc(O)c(O)nc3c2C1 | 5.01 | 4.78 | < 4.52 | < 5.00 | 6.17 | < 4.52 | < 4.52 | 4.78 | < 4.52 | 
O=c1[nH]c2ccc3c(c2[nH]c1=O)NCCC3 | 5.66 |  |  | 5.89 | 4.96 |  |  |  |  | 
CC(C)CCN1CCc2ccc3nc(O)c(O)nc3c2C1 | 3.91 |  |  |  | 4.60 |  |  |  |  | 
CN1CCc2c(c(C(=O)O)cc3nc(O)c(O)nc23)C1 | 4.25 |  |  |  | 4.44 |  |  |  |  | 

SMILES | pIC50 [1] | pIC50 [2] | pIC50 [3] | pIC50 [4] | pIC50 [5] | pIC50 [6] | pIC50 [7] | pIC50 [8] | pIC50 [9] | pIC50 [10]
CN1CCc2c(c(S(=O)(=O)c3ccccc3)cc3nc(O)c(O)nc23)C1 | 4.02 |  |  |  | 4.14 |  |  |  |  | 
CN1Cc2c(S(=O)(=O)N(C)C)cc3c(N=O)c(O)[nH]c3c2C1 | 6.22 |  |  |  |  |  |  |  |  | 
CCC(C)N1CCc2c(Br)cc3nc(O)c(O)nc3c2C1 (configuration not stated) | 5.60 |  |  | < 5.00 | 6.37 |  |  |  |  | 
CCN1CCc2c(Br)cc3[nH]c(=O)c(=O)[nH]c3c2C1 | 6.13 |  |  | 6.21 | 5.19 |  |  |  |  | 
CN1CCc2c(c(Br)cc3[nH]c(=O)c(=O)[nH]c23)C1 | 5.73 |  |  | 5.37 | 5.75 |  |  |  |  | 
Oc1nc2ccc3c(c2nc1O)CCCN3 | 4.62 |  |  |  | 5.05 |  |  |  |  | 
CN1CCc2c(ccc3[nH]c(=O)c(=O)[nH]c23)C1 | 5.19 |  |  | < 4.00 | 4.54 |  |  |  |  | 
Oc1nc2ccc3c(c2nc1O)CCNC3 | 4.92 |  |  |  | 4.77 |  |  |  |  | 
CN1CCc2ccc3[nH]c(=O)c(=O)[nH]c3c2C1 | 4.74 |  |  | < 4.00 | 4.15 |  |  |  |  | 
CCCN1CCc2c(ccc3[nH]c(=O)c(=O)[nH]c23)C1 | 4.74 |  |  |  | 4.64 |  |  |  |  | 
COC(=O)c1cc2nc(O)c(O)nc2c2c1CN(C)CC2 | 4.36 |  |  |  | 4.66 |  |  |  |  | 
COC(=O)CC1c2ccc(Cl)cc2NC(=O)C1[N+](=O)[O-] (configuration not stated) | 3.86 |  |  |  |  |  |  |  |  | 
CN1CCc2c([N+](=O)[O-])cc3[nH]c(=O)c(=O)[nH]c3c2C1 | 7.20 | 6.30 | 5.40 | 6.43 | 6.43 | 5.40 | 5.60 | 6.30 | 5.60 | 7.20
CCCN1CCc2c(c(Br)cc3nc(O)c(O)nc23)C1 | 5.96 |  |  | < 5.00 | 5.19 |  |  |  |  | 
CCOC(=O)C(=O)N1CCCc2c1ccc1[nH]c(=O)c(=O)[nH]c21 | 4.89 |  |  | 4.30 | 4.70 |  |  |  |  | 
CCC(C)CN1CCc2c([N+](=O)[O-])cc3[nH]c(=O)c(=O)[nH]c3c2C1 (configuration not stated) | 6.55 |  | 4.96 | 5.89 | 6.55 | 4.96 | 5.10 |  | 5.10 | 
O=c1[nH]c2cc(-n3ccnc3)c([N+](=O)[O-])cc2[nH]c1=O [YM-90K] | 6.70 |  |  |  |  |  |  |  |  | 
CN1CCc2c(c(Br)c([N+](=O)[O-])c3[nH]c(=O)c(=O)[nH]c23)C1 | 5.72 |  |  | < 5.00 | 5.24 |  |  |  |  | 
CCCCCCCN1CCc2c(ccc3[nH]c(=O)c(=O)[nH]c23)C1 | < 4.00 |  |  | < 4.00 | 4.35 |  |  |  |  | 
O=c1[nH]c2cc(Br)c3c(c2[nH]c1=O)CNCC3 | 5.46 |  |  | 6.00 | 5.82 |  |  |  |  | 
CCC(C)N1CCc2c([N+](=O)[O-])cc3[nH]c(=O)c(=O)[nH]c3c2C1 (configuration not stated) | 6.55 | 5.80 |  | 6.03 | 6.07 |  | 4.82 | 5.80 | 4.82 | 
CC(C)CCN1CCc2c([N+](=O)[O-])cc3[nH]c(=O)c(=O)[nH]c3c2C1 | 6.96 |  | 5.15 | 6.07 | 5.93 | 5.15 | 5.30 |  | 5.30 | 
CN1CCc2c(c([N+](=O)[O-])cc3[nH]c(=O)c(=O)[nH]c23)C1 | 6.54 | 5.74 | 5.05 | 5.31 | 6.42 | 5.05 | 4.74 | 5.74 | 4.74 | 
CN1CCc2c(Br)cc3[nH]c(=O)c(=O)[nH]c3c2C1 | 5.55 |  |  | 5.40 | 5.55 |  |  |  |  | 
CC(C)N1CCc2c([N+](=O)[O-])cc3[nH]c(=O)c(=O)[nH]c3c2C1 | 6.82 | 5.82 | 5.15 | 6.03 | 6.54 | 5.15 | 5.22 | 5.82 | 5.22 | 
